Experimental data as given in ChEMBL document CHEMBL3414500, “New polycyclic dual inhibitors of the wild type and the V27A mutant M2 channel of the influenza A virus with unexpected binding mode” (Eur J Med Chem, 2015).

The compounds below were run against Matrix protein 2 (Influenza A virus (A/Udorn/307/1972(H3N2)), UniProt P0DOF8, V27A).

SMILES | IC50 [µM]
C1=C[C@H]2[C@H]3[C@H]4[C@@H]1[C@@H]1[C@H]2[C@@H]2[C@H]3[C@@H]3CNC[C@@H]3[C@H]4[C@H]12 | 185
C1C[C@H]2[C@H]3[C@H]4[C@@H]1[C@@H]1[C@H]2[C@@H]2[C@H]3[C@@H]3CNC[C@@H]3[C@H]4[C@H]12 | 17.2
N=C(N)N1C[C@@H]2[C@H](C1)[C@@H]1[C@@H]3[C@H]4CC[C@H]5[C@@H]3[C@H]2[C@H]2[C@@H]5[C@@H]4[C@@H]12 | 32.2
